Results published in patent US12624034B2, “Non-covalent modifiers of AKT1 and uses thereof” (Terremoto Biosciences, Inc., priority 2023, dated 2026).
Where two headings read alike, the source gives them in different places.

How the values were obtained:
AKT1 WT = target: T1, AKT1 WT (Homo sapiens, UniProt P31749); experiment: Live cell AKT1 WT target engagement by NanoBRET competitive probe displacement in HEK293 cells; format: binding; conditions: 2 h at 37° C., read-out: AKT1 WT IC50
T1 construct: expressed in transfected cells; host or cells: HEK293
T1 sequence (P31749 whole entry): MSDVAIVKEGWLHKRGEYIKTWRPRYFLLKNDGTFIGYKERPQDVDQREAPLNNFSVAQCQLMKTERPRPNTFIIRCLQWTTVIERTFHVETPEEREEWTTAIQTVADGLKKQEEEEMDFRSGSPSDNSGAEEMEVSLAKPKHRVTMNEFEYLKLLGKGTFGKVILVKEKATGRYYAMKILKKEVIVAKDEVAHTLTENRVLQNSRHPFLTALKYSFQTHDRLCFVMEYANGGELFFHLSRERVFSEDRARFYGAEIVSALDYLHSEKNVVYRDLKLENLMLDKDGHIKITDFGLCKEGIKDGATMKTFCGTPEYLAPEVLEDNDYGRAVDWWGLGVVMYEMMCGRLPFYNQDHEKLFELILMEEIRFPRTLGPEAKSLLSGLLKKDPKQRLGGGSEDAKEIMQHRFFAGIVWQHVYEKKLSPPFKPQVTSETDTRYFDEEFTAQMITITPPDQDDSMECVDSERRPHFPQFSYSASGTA

AKT2 = target: T2, AKT2 (Homo sapiens, UniProt P31751); experiment: Live cell AKT2 target engagement by NanoBRET competitive probe displacement in HEK293 cells; format: binding; conditions: 2 h at 37° C., read-out: AKT2 IC50
T2 construct: expressed in transfected cells; host or cells: HEK293
T2 sequence (P31751 whole entry): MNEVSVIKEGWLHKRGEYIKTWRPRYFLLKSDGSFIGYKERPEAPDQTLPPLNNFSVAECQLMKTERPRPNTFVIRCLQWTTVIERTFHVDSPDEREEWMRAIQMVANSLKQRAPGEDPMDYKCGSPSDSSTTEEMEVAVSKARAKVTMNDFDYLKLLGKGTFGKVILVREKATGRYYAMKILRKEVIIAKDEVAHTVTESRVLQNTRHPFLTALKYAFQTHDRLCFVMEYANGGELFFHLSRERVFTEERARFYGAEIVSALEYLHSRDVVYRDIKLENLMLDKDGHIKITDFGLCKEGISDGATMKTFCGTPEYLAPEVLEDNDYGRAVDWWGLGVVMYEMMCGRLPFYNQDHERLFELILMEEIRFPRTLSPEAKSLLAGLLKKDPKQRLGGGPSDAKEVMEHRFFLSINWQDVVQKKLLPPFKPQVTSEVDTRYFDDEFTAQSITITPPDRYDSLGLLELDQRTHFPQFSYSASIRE

[1] = NanoBRET competitive probe displacement, live HEK293 cells
[2] = NanoBRET live cell target engagement, HEK293 cells

IC50 (AKT1 WT; [1]) [µM]	IC50 (AKT2; [1]) [µM]	IC50 (AKT1 WT; [2]) [µM]	IC50 (AKT2; [2]) [µM]	SMILES
0.076	2.68			Cc1ccc(C(=O)N[C@H]2CCc3cc(-n4c(-c5cccnc5N)nc5ccc(-n6ncnc6C)nc54)ccc32)cn1 [Compound 418, (S)—N-(5-(2-(2-aminopyridin-3-yl)-5-(5-methyl-1H-1,2,4-triazol-1-yl)-3H-imidazo[4,5-b]pyridin-3-yl)-2,3-dihydro-1H-inden-1-yl)-6-methylnicotinamide]
0.00704	0.344			COC1CN(c2ccn(-c3ccc4nc(-c5cccnc5N)n(-c5ccc6c(c5)CC(F)[C@@H]6NC5CCN(C(=O)C6CC6)CC5)c4n3)n2)C1 (stereo partly drawn) [Compound 553]
0.199	6.86			Nc1ncccc1-c1nc2ccc(-n3cccn3)nc2n1-c1ccc2c(c1)CC[C@@H]2N1Cc2ccncc2C1 [Compound 494]
		0.0468	0.427	CCc1ncccc1C(=O)N[C@H]1CCc2cc(-n3c(-c4cccnc4N)nc4ccc(-n5cccn5)nc43)ccc21 [Compound 86]
		0.00903	0.0498	Cc1ccc(C(=O)N[C@H]2CCc3cc(-n4c(-c5cccnc5N)nc5ccc(-c6ccn(C(F)F)n6)nc54)ccc32)cn1 [Compound 73]
0.0205	0.695			Nc1ncccc1-c1nc2ccc(-n3cccn3)nc2n1-c1ccc2c(c1)CC[C@@H]2NC1CCCc2ccncc21 (stereo partly drawn) [Compound 501]
		0.704	9.91	Nc1ncccc1-c1nc2ccc(-n3cccn3)nc2n1-c1ccc2c(c1)CC[C@@H]2NC(=O)[C@@H]1CCO1 [Compound 373]
		0.00918	0.12	Nc1ncccc1-c1nc2ccc(-n3cccn3)nc2n1-c1ccc2c(c1)CC[C@@H]2NC(=O)c1ccc(Cl)cc1 [Compound 263]
		0.0425	0.785	Nc1ncccc1-c1nc2ccc(-n3cccn3)nc2n1-c1ccc2c(c1)CC[C@@H]2NCc1ccccn1 [Compound 131]
		0.00953	0.0527	CN1Cc2cc(C(=O)N[C@H]3CCc4cc(-n5c(-c6cccnc6N)nc6ccc(-n7cccn7)nc65)ccc43)cnc2C1 [Compound 112]
0.19	3.53			Nc1ncccc1-c1nc2ccc(-n3cccn3)nc2n1-c1ccc2c(c1)CC[C@@H]2NC1CCN(C(=O)C2CC2(F)F)CC1 (stereo partly drawn) [Compound 433]
		0.0153	0.18	Nc1ncccc1-c1nc2ccc(-n3cccn3)nc2n1-c1ccc2c(c1)CC[C@@H]2NC(=O)c1ccnc(OC2COC2)c1 [Compound 164, (S)—N-(5-(2-(2-aminopyridin-3-yl)-5-(1H-pyrazol-1-yl)-3H-imidazo[4,5-b]pyridin-3-yl)-2,3-dihydro-1H-inden-1-yl)-2-(oxetan-3-yloxy)isonicotinamide]
		0.0249	0.138	Cc1ncc(C(=O)N[C@H]2CCc3cc(-n4c(-c5cccnc5N)nc5ccc(-n6cccn6)nc54)ccc32)cn1 [Compound 143]
		0.0237	0.824	Nc1ncccc1-c1nc2ccc(-n3ccc(F)n3)nc2n1-c1ccc2c(c1)CC[C@@H]2NC(=O)c1ccc(F)c(F)c1 [Compound 347]
		0.0202	0.107	Nc1ncccc1-c1nc2ccc(-n3cccn3)nc2n1-c1ccc2c(c1)CC[C@@H]2n1cnnc1 [Compound 248, (S)-3-(3-(1-(4H-1,2,4-triazol-4-yl)-2,3-dihydro-1H-inden-5-yl)-5-(1H-pyrazol-1-yl)-3H-imidazo[4,5-b]pyridin-2-yl)pyridin-2-amine]
0.336	3.1			Cc1ccc(C(=O)N[C@H]2CCc3cc(-n4c(-c5cccnc5N)nc5ccc(-n6ncnc6C6CC6)nc54)ccc32)cn1 [Compound 420]
0.0523	0.715			COc1ncn(-c2ccc3nc(-c4cccnc4N)n(-c4ccc5c(c4)CC[C@@H]5NC(=O)c4ccc(C)nc4)c3n2)n1 [Compound 456, (S)—N-(5-(2-(2-aminopyridin-3-yl)-5-(3-methoxy-1H-1,2,4-triazol-1-yl)-3H-imidazo[4,5-b]pyridin-3-yl)-2,3-dihydro-1H-inden-1-yl)-6-methylnicotinamide]
		0.168	2.34	CN(C)Cc1cc(C(=O)N[C@H]2CCc3cc(-n4c(-c5cccnc5N)nc5ccc(-n6cccn6)nc54)ccc32)ccn1 [Compound 205]
		0.0398	0.9	Nc1ncccc1-c1nc2ccc(-n3cccn3)nc2n1-c1ccc2c(c1)CC[C@@H]2n1cc(C2CCO2)nn1 (stereo partly drawn) [Compound 354]
0.032	1.29			CSc1ccn(-c2ccc3nc(-c4cccnc4N)n(-c4ccc5c(c4)CC[C@@H]5NC4CCN(C(=O)C5CC5)CC4)c3n2)n1 [Compound 518]
		0.0284	0.26	Cc1ncsc1C(=O)N[C@H]1CCc2cc(-n3c(-c4cccnc4N)nc4ccc(-n5cccn5)nc43)ccc21 [Compound 99]
		0.0428	1.14	Cc1ncc(C(=O)N[C@H]2CCc3cc(-n4c(-c5cccnc5N)nc5ccc(-n6nccn6)nc54)ccc32)c(C)n1 [Compound 92]

IC50 (AKT1 WT; [1]) [µM]	IC50 (AKT2; [1]) [µM]	IC50 (AKT1 WT; [2]) [µM]	IC50 (AKT2; [2]) [µM]	SMILES
0.0359	0.54			Cc1ccc(C(=O)N[C@H]2CCc3cc(-n4c(-c5cccnc5N)nc5ccc(-n6cnc(C7CC7)n6)nc54)ccc32)cn1 [Compound 419]
		0.00588	0.0315	COc1cccc(C(=O)N[C@H]2CCc3cc(-n4c(-c5cccnc5N)nc5ccc(-n6cccn6)nc54)ccc32)c1 [Compound 335]
		0.198	0.763	Cc1cc2ncn([C@H]3CCc4cc(-n5c(-c6cccnc6N)nc6ccc(-n7cccn7)nc65)ccc43)c(=O)c2cn1 [Compound 91, (S)-3-(5-(2-(2-aminopyridin-3-yl)-5-(1H-pyrazol-1-yl)-3H-imidazo[4,5-b]pyridin-3-yl)-2,3-dihydro-1H-inden-1-yl)-7-methylpyrido[4,3-d]pyrimidin-4(3H)-one]
		0.391	2.85	Cc1ccc(C(=O)N[C@H]2CCc3cc(-n4c(-c5cccnc5N)nc5ccc(C#Cc6ncco6)nc54)ccc32)cn1 [Compound 341]
0.0335	1.33			Nc1ncccc1-c1nc2ccc(-n3ccc(OC(F)F)n3)nc2n1-c1ccc2c(c1)CC(F)[C@@H]2NC1CCN(C(=O)C2CC2)CC1 (stereo partly drawn) [Compound 525]
0.0283	1.74			Cc1ccc(C(=O)N[C@H]2CCc3cc(-n4c(-c5cccnc5N)nc5c(C#N)cc(-n6nccn6)nc54)ccc32)cn1 [Compound 547]
		0.526	6.85	CC(=O)NCC#Cc1ccc2nc(-c3cccnc3N)n(-c3ccc4c(c3)CC[C@@H]4NC(=O)c3ccc(C)nc3)c2n1 [Compound 327]
		0.0105	0.0996	COCCOc1cc(C(=O)N[C@H]2CCc3cc(-n4c(-c5cccnc5N)nc5ccc(-n6cccn6)nc54)ccc32)ccn1 [Compound 203]
0.109	3.03			Nc1ncccc1-c1nc2ccc(-n3cccn3)nc2n1-c1ccc2c(c1)CC[C@@H]2NC1CCN(C(=O)C2CC2)C1 (stereo partly drawn) [Compound 461]
		0.0169	0.201	Cc1csc(-c2ccc3nc(-c4cccnc4N)n(-c4ccc5c(c4)CC[C@@H]5n4ccnn4)c3n2)n1 [Compound 316]
		0.0228	0.366	Cc1ncc(C(=O)N[C@H]2CCc3cc(-n4c(-c5cccnc5N)nc5ccc(-n6cccn6)nc54)ccc32)c(C(F)F)n1 [Compound 151, (S)—N-(5-(2-(2-aminopyridin-3-yl)-5-(1H-pyrazol-1-yl)-3H-imidazo[4,5-b]pyridin-3-yl)-2,3-dihydro-1H-inden-1-yl)-4-(difluoromethyl)-2-methylpyrimidine-5-carboxamide]
0.124	1.33			Nc1ncccc1-c1nc2ccc(-c3cnccn3)nc2n1-c1ccc2c(c1)CC[C@@H]2NC1CCN(C(=O)C2CC2)CC1 [Compound 556]
0.0679	2.08			Nc1ncccc1-c1nc2ccc(-n3cccn3)nc2n1-c1ccc2c(c1)CC[C@@H]2NC1CCN(C(=O)C2CCC2)CC1 [Compound 422]
		0.00559	0.0813	Nc1ncccc1-c1nc2ccc(-n3cccn3)nc2n1-c1ccc2c(c1)CC[C@@H]2NC(=O)c1ccnc(F)c1 [Compound 295]
		0.0418	1.96	Cc1coc(-c2ccc3nc(-c4cccnc4N)n(-c4ccc5c(c4)CC[C@@H]5n4ccnn4)c3n2)n1 [Compound 245, (S)-3-(3-(1-(1H-1,2,3-triazol-1-yl)-2,3-dihydro-1H-inden-5-yl)-5-(4-methyloxazol-2-yl)-3H-imidazo[4,5-b]pyridin-2-yl)pyridin-2-amine]
		0.113	1.96	Nc1ncccc1-c1nc2ccc(-n3cccn3)nc2n1-c1ccc2c(c1)CC[C@@H]2NCc1ccc(C(F)F)nc1 [Compound 84]
		0.0228	0.111	Nc1ncccc1-c1nc2ccc(-n3cccn3)nc2n1-c1ccc2c(c1)CC[C@@H]2NC(=O)c1ccnc2c1CCC2 [Compound 235]
		0.0147	0.0953	Cn1ccc(-c2cn([C@H]3CCc4cc(-n5c(-c6cccnc6N)nc6ccc(-n7cccn7)nc65)ccc43)nn2)n1 [Compound 197]
		0.0182	1.32	Nc1ncccc1-c1nc2ccc(-n3cccn3)nc2n1-c1ccc2c(c1)CC[C@@H]2n1cc(C(F)F)nn1 [Compound 326]
		0.0108	0.123	Nc1ncccc1-c1nc2ccc(-n3cccn3)nc2n1-c1ccc2c(c1)CC[C@@H]2NC(=O)c1cccc(O)c1 [Compound 307]
		0.00923	0.0786	Nc1ncccc1-c1nc2ccc(-n3cccn3)nc2n1-c1ccc2c(c1)CC[C@@H]2NC(=O)c1ccc2[nH]c(=O)oc2c1 [Compound 191]
		0.00795	0.0281	Cc1cn2cc(C(=O)N[C@H]3CCc4cc(-n5c(-c6cccnc6N)nc6ccc(-n7cccn7)nc65)ccc43)ccc2n1 [Compound 72]

SMILES	IC50 (AKT1 WT; [1]) [µM]	IC50 (AKT2; [1]) [µM]	IC50 (AKT1 WT; [2]) [µM]	IC50 (AKT2; [2]) [µM]
Nc1ncccc1-c1nc2ccc(-n3ccc(N4CC5CC(C4)O5)n3)nc2n1-c1ccc2c(c1)CC(F)[C@@H]2NC1CCN(C(=O)C2CC2)CC1 (stereo partly drawn) [Compound 552]	0.00918	0.166		
